{"source": "PubChem BioAssay AID1555", "about": "(Sanford-Burnham Center for Chemical Genomics, 2009)", "tested_on": "human liver microsomes, LC/MS/MS parent remaining, 60 min", "experiment": "metabolic stability in human liver microsomes, late-stage follow-up, ADME assay, biochemical (AID 1555)", "details": "at 1 µM, stronger effect = lower value"}
{"smiles": "C=CCn1c(SCC(=O)c2ccc(O)c(O)c2)nnc1-c1ccccc1OC", "values": [{"measurement": "percent remaining", "value": 47, "unit": "%"}, {"measurement": "percent remaining", "setting": "measured here: remaining without NADPH control", "value": 100, "unit": "%"}]}
